Reference: EPA's ToxValDB 9.5 (doi:10.2903/j.efsa.2008.138r)
In brackets after ≈: the same amount, converted by molar mass.

What was measured:
[1] = test system: Aphidius rhopalosiphi; settings: not reported; reproduction
[2] = test system: Apis mellifera; settings: acute; duration: 48 hours; oral; unspecified; mortality
[3] = test system: Beta vulgaris; settings: acute; duration: 14 days; other
[4] = test system: Bibionidae; settings: chronic/long-term; duration: 21 days; other
[5] = test system: Canidae; settings: chronic; duration: 1 years; oral; Dog Other; clinical chemistry
[6] = test system: Colinus virginianus; settings: for LD50: acute, oral, mortality
[7] = test system: Daphnia magna; settings: chronic/long-term; duration: 21 days; reproduction
[8] = test system: Mus musculus; settings: chronic; duration: 18 months; histopathology: neoplastic
[9] = test system: Oncorhynchus mykiss; settings: acute; duration: 96 hours; mortality
[10] = test system: Pleurozium sp.; settings: acute; duration: 72 hours; biomass
[11] = test system: Rattus norvegicus
[12] = test system: Tagia sp.
[13] = test system: Aphidius rhopalosiphi; test: LR50; higher = less toxic; settings: not reported; mortality

## Fc1ccc([C@@]2(Cn3cncn3)O[C@@H]2c2ccccc2Cl)cc1 [Epoxiconazole]
[1]
  LEL: 246 g/ha
[2]
  LD50: > 83 µg/piece
[3]
  LEL: 250 g/ha
[4]
  NOEC: 0.0625 mg/L
[5]
  NOAEL: 1.6 mg/kg-day
[6]; diet
  LD50: > 5000 mg/kg
[6]
  LD50: > 2000 mg/kg
[6]; reproduction developmental
  NOEL: 1 mg/kg-day
[7]
  NOEC: 0.63 mg/L
[8]
  NOAEL: 0.8 mg/kg-day
[9]
  LC50: 3.14 mg/L (≈ 9.52 µM)
[10]
  NOEC: 0.0078 mg/L
[11]; acute, oral, mortality
  LD50: 3160 mg/kg
[11]; reproduction developmental, reproduction
  NOAEL: 2.3 mg/kg-day
[12]; acute, duration: 14 days, mortality
  LC50: > 1000 mg/kg
[12]; chronic/long-term, reproduction
  NOEC: 0.167 mg/kg
[13]
  LR50: > 246 g/ha
